Measurements: patent US20260132125A1, “PESTICIDALLY ACTIVE FUSED BICYCLIC HETEROAROMATIC COMPOUNDS” (priority 2022, published 2026)

Legend:
Type in all cases: in vivo
Pseudoplusia includens = assay: Example B9: Pseudoplusia includens (soybean looper), larvicide, feeding/contact, soybean plants; conditions: Chrysodeixis includens, 120 h; 50 ppm; L2 larvae; 5 days after infestation; read-out: effect in at least one of the two categories (mortality or growth inhibition)
Description: Soybean plants were treated in a spray chamber, cut off and placed into petri dishes containing wet filter paper. 1d after application leaves were infested with 5 L2 larvae and covered with a fabric filter and plastic lids. 5 days after infestation the samples were assessed for mortality and growth inhibition. The following compounds gave an effect of at least 80% in at least one of the two categories (mortality or growth inhibition) at an application rate of 50 ppm: […]

Spodoptera littoralis = assay: Example B6: activity against Spodoptera littoralis (Egyptian cotton leaf worm), cotton leaf discs; conditions: foliar, 72 h, 200 ppm, L1 larvae, 3 days after infestation, read-out: control (at least one of mortality, anti-feedant effect, growth inhibition)
Outline: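 Leaf discs on agar; spray, aqueous dilution of 10′000 ppm DMSO stock; dry; 5 L1 larvae/disc. Read at 3 d post-infestation: mortality, antifeedant, growth inhibition vs untreated. Control = ≥1 category above untreated.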

Chilo suppressalis = assay: Example B1: activity against Chilo suppressalis (striped rice stemborer), artificial diet; conditions: 144 h, 200 ppm, L2 larvae, 6 days after infestation, read-out: control (at least one of mortality, anti-feedant effect, growth inhibition)
Outline: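 Scoring covers mortality, anti-feedant effect and growth inhibition at 6 days post-infestation, relative to untreated diet, with activity defined as at least one category above untreated. Test solutions were aqueous, made from 10'000 ppm DMSO stocks, and applied to artificial diet before drying and infestation with L2 larvae.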

Plutella xylostella = assay: Example B5: activity against Plutella xylostella (diamond back moth), artificial diet, eggs; conditions: 192 h, 8 days after infestation, read-out: effect in at least one of the two categories (mortality or growth inhibition)
Outline: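 Artificial diet in 24-well plates was treated with aqueous dilutions of DMSO stocks, dried, then infested with Plutella eggs. Mortality and growth inhibition were scored against untreated samples 8 days after infestation; application rate 200 ppm.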

Diabrotica balteata = assay: Example B2: activity against Diabrotica balteata (corn root worm), maize sprouts; conditions: 96 h, L2 larvae, 4 days after infestation, read-out: effect in at least one of the two categories (mortality or growth inhibition)
Outline: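 Maize sprouts on agar were sprayed with aqueous test solutions made from 10′000 ppm DMSO stocks, dried, then infested with 6–10 L2 larvae per well. Mortality and growth inhibition were scored against untreated samples 4 days after infestation, at an application rate of 200 ppm.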

Myzus persicae [1] = assay: Example B4: activity against Myzus persicae (green peach aphid), intrinsic activity; conditions: 120 h, test rate 12 ppm, 5 days after infestation
Outline: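 Compounds from 10′000 ppm DMSO stocks were mixed into sucrose solution in 24-well plates sealed with Parafilm. Aphid-infested pea seedlings were set on the membrane and the plate inverted so aphids fed through it. Mortality scored 5 days after infestation.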

Myzus persicae [2] = assay: Example B7b: Myzus persicae feeding/contact activity, eggplant leaf discs; conditions: foliar, 144 h, mixed ages, 6 days after infestation
Description: Eggplant leaf discs were placed onto agar in a 24-well microtiter plate and sprayed with aqueous test solutions prepared from 10′000 ppm DMSO stock solutions. After drying, the leaf discs were infested with an aphid population of mixed ages. The samples were assessed for mortality 6 days after infestation.

Euschistus heros = assay: Example B3: activity against Euschistus heros (neotropical brown stink bug), soybean leaves; conditions: 120 h, N2 nymphs, 5 days after infestation, read-out: effect in at least one of the two categories (mortality or growth inhibition)
Description: Soybean leaves on agar in 24-well microtiter plates were sprayed with aqueous test solutions prepared from 10′000 ppm DMSO stock solutions. After drying the leaves were infested with N2 nymphs. The samples were assessed for mortality and growth inhibition in comparison to untreated samples 5 days after infestation. The following compounds gave an effect of at least 80% in at least one of the two categories (mortality or growth inhibition) at an application rate of 200 ppm: […]

C[C@H](Nc1ncnc2c(C(F)(F)F)cc(Cl)cc12)c1ncnn1-c1cc(C(=O)N(C)C)ncn1 [Compound P30, 6-[5-[(1S)-1-[[6-chloro-8-(trifluoromethyl)quinazolin-4-yl]amino]ethyl]-1,2,4-triazol-1-yl]-N,N-dimethyl-pyrimidine-4-carboxamide]
≥ 80%: percent effect (mortality or growth inhibition) at 50 ppm (Pseudoplusia includens) | percent control (mortality, anti-feedant effect or growth inhibition) at 200 ppm (Spodoptera littoralis) | percent control (mortality, anti-feedant effect or growth inhibition) at 200 ppm (Chilo suppressalis) | percent effect (mortality or growth inhibition) at 200 ppm (Plutella xylostella) | percent effect (mortality or growth inhibition) at 200 ppm (Diabrotica balteata) | mortality at 12 ppm (Myzus persicae [1]) | mortality at 200 ppm (Myzus persicae [2])

CCN(C)C(=O)c1cc(-n2ncnc2[C@H](C)Nc2ncnc3c(C(F)(F)F)cc(Cl)cc23)ncn1 [Compound P31, 6-[5-[(1S)-1-[[6-chloro-8-(trifluoromethyl)quinazolin-4-yl]amino]ethyl]-1,2,4-triazol-1-yl]-N-ethyl-N-methyl-pyrimidine-4-carboxamide]
≥ 80%: percent effect (mortality or growth inhibition) at 50 ppm (Pseudoplusia includens) | percent control (mortality, anti-feedant effect or growth inhibition) at 200 ppm (Spodoptera littoralis) | percent control (mortality, anti-feedant effect or growth inhibition) at 200 ppm (Chilo suppressalis) | percent effect (mortality or growth inhibition) at 200 ppm (Plutella xylostella) | percent effect (mortality or growth inhibition) at 200 ppm (Diabrotica balteata) | mortality at 12 ppm (Myzus persicae [1]) | mortality at 200 ppm (Myzus persicae [2])

C[C@H](Nc1ncnc2c(C(F)(F)F)cc(Cl)cc12)c1ncnn1-c1cc(C(=O)NCC#N)ncn1 [Compound P38, 6-[5-[(1S)-1-[[6-chloro-8-(trifluoromethyl)quinazolin-4-yl]amino]ethyl]-1,2,4-triazol-1-yl]-N-(cyanomethyl)pyrimidine-4-carboxamide]
≥ 80%: percent effect (mortality or growth inhibition) at 50 ppm (Pseudoplusia includens) | percent control (mortality, anti-feedant effect or growth inhibition) at 200 ppm (Spodoptera littoralis) | percent control (mortality, anti-feedant effect or growth inhibition) at 200 ppm (Chilo suppressalis) | percent effect (mortality or growth inhibition) at 200 ppm (Euschistus heros) | percent effect (mortality or growth inhibition) at 200 ppm (Plutella xylostella) | percent effect (mortality or growth inhibition) at 200 ppm (Diabrotica balteata) | mortality at 12 ppm (Myzus persicae [1]) | mortality at 200 ppm (Myzus persicae [2])

C[C@H](Nc1ncnc2c(Br)cc(Br)cc12)c1ncnn1-c1cc(C#N)ncn1 [Compound P41, 6-[5-[(1S)-1-[(6,8-dibromoquinazolin-4-yl)amino]ethyl]-1,2,4-triazol-1-yl]pyrimidine-4-carbonitrile]
≥ 80%: percent control (mortality, anti-feedant effect or growth inhibition) at 200 ppm (Spodoptera littoralis) | percent control (mortality, anti-feedant effect or growth inhibition) at 200 ppm (Chilo suppressalis) | percent effect (mortality or growth inhibition) at 200 ppm (Plutella xylostella) | percent effect (mortality or growth inhibition) at 200 ppm (Diabrotica balteata) | mortality at 200 ppm (Myzus persicae [2])

C[C@@H](c1ncnn1-c1cc(C(=O)NCC#N)ncn1)N(C)c1ncnc2c(C(F)(F)F)cc(Cl)cc12 [Compound P52, 6-[5-[(1S)-1-[[6-chloro-8-(trifluoromethyl)quinazolin-4-yl]-methyl-amino]ethyl]-1,2,4-triazol-1-yl]-N-(cyanomethyl)pyrimidine-4-carboxamide]
≥ 80%: percent effect (mortality or growth inhibition) at 50 ppm (Pseudoplusia includens) | percent control (mortality, anti-feedant effect or growth inhibition) at 200 ppm (Spodoptera littoralis) | percent control (mortality, anti-feedant effect or growth inhibition) at 200 ppm (Chilo suppressalis) | percent effect (mortality or growth inhibition) at 200 ppm (Euschistus heros) | percent effect (mortality or growth inhibition) at 200 ppm (Plutella xylostella) | percent effect (mortality or growth inhibition) at 200 ppm (Diabrotica balteata) | mortality at 12 ppm (Myzus persicae [1]) | mortality at 200 ppm (Myzus persicae [2])

CCN(C)C(=O)c1cc(-n2ncnc2[C@H](C)N(C)c2ncnc3c(C(F)(F)F)cc(Cl)cc23)ncn1 [Compound P55, 6-[5-[(1S)-1-[[6-chloro-8-(trifluoromethyl)quinazolin-4-yl]-methyl-amino]ethyl]-1,2,4-triazol-1-yl]-N-ethyl-N-methyl-pyrimidine-4-carboxamide]
≥ 80%: percent effect (mortality or growth inhibition) at 50 ppm (Pseudoplusia includens) | percent control (mortality, anti-feedant effect or growth inhibition) at 200 ppm (Spodoptera littoralis) | percent control (mortality, anti-feedant effect or growth inhibition) at 200 ppm (Chilo suppressalis) | percent effect (mortality or growth inhibition) at 200 ppm (Euschistus heros) | percent effect (mortality or growth inhibition) at 200 ppm (Plutella xylostella) | percent effect (mortality or growth inhibition) at 200 ppm (Diabrotica balteata) | mortality at 12 ppm (Myzus persicae [1]) | mortality at 200 ppm (Myzus persicae [2])
